The values below come from the PolyMetriX glass transition set.

Compound `*/C(=C(/*)c1ccc(C(C)(C)C)cc1)c1ccccc1` (repeat unit) showed a glass transition temperature of 200.00 °C.

Compound `*/C=C(/*)c1c(F)c(F)c(CCCC)c(F)c1F` (repeat unit) showed a glass transition temperature of 110.00 °C. In turn, `*C(=O)Nc1ccc(Oc2cccc(NC(=O)c3ccc4c(c3)C(=O)N(c3ccc(-c5sc(-c6ccc(N7C(=O)c8ccc(*)cc8C7=O)cc6)c(-c6ccccc6)c5-c5ccccc5)cc3)C4=O)c2)cc1` (repeat unit) showed a glass transition temperature of 315.00 °C.

In the case of `*C(=O)Nc1ccc(Oc2cccc(Oc3ccc(NC(=O)c4ccc5c(c4)C(=O)N(c4ccc(Sc6ccc(Oc7ccc(Sc8ccc(N9C(=O)c%10ccc(*)cc%10C9=O)cc8)cc7)cc6)cc4)C5=O)cc3)c2)cc1` (repeat unit), the glass transition temperature came out at 179.00 °C. The compound `*C(=O)Nc1ccc(Oc2ccccc2-c2ccccc2Oc2ccc(NC(=O)c3ccc4c(c3)C(=O)N(c3ccc(Cc5ccc(N6C(=O)c7ccc(*)cc7C6=O)cc5)cc3)C4=O)cc2)cc1` (repeat unit) yielded a glass transition temperature of 240.00 °C. Compound `*C(=O)Nc1ccc(Oc2ccccc2-c2ccccc2Oc2ccc(NC(=O)c3ccc4c(c3)C(=O)N(c3ccc(N5C(=O)c6ccc(*)cc6C5=O)cc3)C4=O)cc2)cc1` (repeat unit) gave a glass transition temperature of 268.00 °C.

Compound `*C(=O)Nc1ccc(Oc2ccccc2-c2ccccc2Oc2ccc(NC(=O)c3ccc4c(c3)C(=O)N(c3ccc(Oc5ccc(S(=O)(=O)c6ccc(Oc7ccc(N8C(=O)c9ccc(*)cc9C8=O)cc7)cc6)cc5)cc3)C4=O)cc2)cc1` (repeat unit) yielded a glass transition temperature of 236.00 °C.

Regarding `*C(=O)Nc1ccc(Oc2ccccc2-c2ccccc2Oc2ccc(NC(=O)c3ccc4c(c3)C(=O)N(c3ccc(Oc5ccccc5-c5ccccc5Oc5ccc(N6C(=O)c7ccc(*)cc7C6=O)cc5)cc3)C4=O)cc2)cc1` (repeat unit), the glass transition temperature is 227.00 °C. In the case of `*C(=O)Nc1ccc(S(=O)(=O)c2ccc(N3C(=O)CC(N4C(=O)c5ccc(*)cc5C4=O)C3=O)cc2)cc1` (repeat unit), the glass transition temperature is 145.00 °C.

For the compound `*C(=O)Nc1ccc(S(=O)(=O)c2ccc(NC(=O)c3ccc(N4C(=O)c5ccc(*)cc5C4=O)cc3)cc2)cc1` (repeat unit), the glass transition temperature was 252.00 °C.

In the case of `*C(=O)Nc1ccc(S(=O)(=O)c2ccc(NC(=O)c3ccc4[nH]c(-c5cc(-c6nc7cc(*)ccc7[nH]6)cc(N6C(=O)c7ccccc7C6=O)c5)nc4c3)cc2)cc1` (repeat unit), the glass transition temperature amounted to 325.00 °C.

The compound `*C(=O)Nc1ccc(S(=O)(=O)c2ccc(NC(=O)c3ccc4[nH]c(-c5cccc(-c6nc7cc(*)ccc7[nH]6)c5)nc4c3)cc2)cc1` (repeat unit) displayed a glass transition temperature of 312.00 °C.

`*C(=O)Nc1ccc(S(=O)(=O)c2ccc(NC(=O)c3ccc4c(c3)C(=O)N(c3cc(-c5nc6ccccc6o5)cc(N5C(=O)c6ccc(*)cc6C5=O)c3)C4=O)cc2)cc1` (repeat unit) had a glass transition temperature of 367.00 °C. On to `*C(=O)Nc1ccc(S(=O)(=O)c2ccc(NC(=O)c3ccc4c(c3)C(=O)N(c3ccc(Oc5ccc(N6C(=O)c7ccc(*)cc7C6=O)cc5)cc3)C4=O)cc2)cc1` (repeat unit), for which the glass transition temperature was 275.00 °C.

Take `*C(=O)Nc1ccc(S(=O)(=O)c2ccc(NC(=O)c3ccc4c(c3)C(=O)N(c3cccc(N5C(=O)c6ccc(*)cc6C5=O)c3)C4=O)cc2)cc1` (repeat unit): the glass transition temperature is 342.00 °C. As to `*C(=O)Nc1ccc(Sc2ccc(NC(=O)c3ccc4c(c3)C(=O)N(c3ccc(Oc5ccc(C6(c7ccc(Oc8ccc(N9C(=O)c%10ccc(*)cc%10C9=O)cc8)cc7)NC(=O)c7ccccc76)cc5)cc3)C4=O)cc2)cc1` (repeat unit), the glass transition temperature was found to be 312.00 °C. As to `*C(=O)Nc1ccc2c(c1)-c1cc(NC(=O)c3ccc4c(c3)C(=O)N(c3cccc(P(=O)(c5ccccc5)c5cccc(N6C(=O)c7ccc(*)cc7C6=O)c5)c3)C4=O)ccc1C2` (repeat unit), the glass transition temperature amounted to 248.00 °C. As to `*C(=O)Nc1cccc(C(=O)c2cccc(NC(=O)c3ccc4c(c3)C(=O)N(c3ccc(-c5sc(-c6ccc(N7C(=O)c8ccc(*)cc8C7=O)cc6)c(-c6ccccc6)c5-c5ccccc5)cc3)C4=O)c2)c1` (repeat unit), the glass transition temperature stood at 308.00 °C. In turn, `*C(=O)Nc1cccc(NC(=O)c2ccc(N3C(=O)c4ccc(*)cc4C3=O)cc2)c1` (repeat unit) came in with a glass transition temperature of 240.00 °C. `*C(=O)Nc1cccc(NC(=O)c2ccc3[nH]c(-c4cc(-c5nc6cc(*)ccc6[nH]5)cc(N5C(=O)c6ccccc6C5=O)c4)nc3c2)c1` (repeat unit) registered a glass transition temperature of 304.00 °C. In turn, `*C(=O)Nc1cccc(NC(=O)c2ccc3[nH]c(-c4cccc(-c5nc6cc(*)ccc6[nH]5)c4)nc3c2)n1` (repeat unit) had a glass transition temperature of 302.00 °C. On to `*C(=O)Nc1cccc(NC(=O)c2ccc3c(c2)C(=O)N(c2cc(-c4nc5ccccc5o4)cc(N4C(=O)c5ccc(*)cc5C4=O)c2)C3=O)n1` (repeat unit), for which the glass transition temperature came out at 365.00 °C. Regarding `*C(=O)Nc1cccc(NC(=O)c2ccc3c(c2)C(=O)N(c2cc(-c4nc5ccccc5s4)cc(N4C(=O)c5ccc(*)cc5C4=O)c2)C3=O)n1` (repeat unit), the glass transition temperature turned out to be 358.00 °C. With `*C(=O)Nc1cccc(NC(=O)c2ccc3c(c2)C(=O)N(c2cccc(N4C(=O)c5ccc(*)cc5C4=O)c2)C3=O)n1` (repeat unit), the glass transition temperature is 339.00 °C. Compound `*C(=O)Nc1cccc(NC(=O)c2cccc(NC(=O)c3ccc(-c4nc5cc(*)ccc5[nH]4)cc3)c2)c1` (repeat unit) displayed a glass transition temperature of 292.00 °C.

Compound `*C(=O)c1ccc(N(*)C)cc1` (repeat unit) had a glass transition temperature of 197.00 °C. The compound `*C(=O)c1ccc2c(c1)C(=O)N(c1cccc(Nc3nc(Nc4cccc(N5C(=O)c6ccc(*)cc6C5=O)c4)nc(N(C)C)n3)c1)C2=O` (repeat unit) returned a glass transition temperature of 294.00 °C. The figure for `*CCCCCCN1C(=O)c2ccc(C(=O)Nc3ccc(S(=O)(=O)c4ccc(NC(=O)c5ccc6c(c5)C(=O)N(*)C6=O)cc4)cc3)cc2C1=O` (repeat unit) is 198.00 °C. As to `*CCCCCCN1C(=O)c2ccc(C(=O)Nc3ccc(S(=O)(=O)c4cccc(NC(=O)c5ccc6c(c5)C(=O)N(*)C6=O)c4)cc3)cc2C1=O` (repeat unit), the glass transition temperature was found to be 190.00 °C. On to `*Nc1ccc(*)cc1C` (repeat unit), for which the glass transition temperature was -71.40 °C. `*Nc1ccc(*)cc1OC` (repeat unit) registered a glass transition temperature of 90.00 °C. The result for `*Nc1ccc(*)cc1OCCCCCCCCCC` (repeat unit) reads 77.00 °C; that for `*Nc1ccc(*)cc1OCCCCCCCCCCCC` (repeat unit), 87.00 °C.

Consider `*Nc1ccc(*)cc1OCCCCCCCCCCOc1ccc(C2CCC(CCCCC)CC2)cc1` (repeat unit), for which the glass transition temperature is 64.50 °C. `*Nc1cccc(NC(=O)c2cc(NC(=O)C34CC5CC(CC(C5)C3)C4)cc(C(*)=O)c2)c1` (repeat unit) came in with a glass transition temperature of 365.00 °C. The result for `*Oc1ccc(C(=O)Nc2ccc(S(=O)(=O)c3ccc(NC(=O)c4ccc(Oc5nc(*)nc(Sc6ccccc6)n5)cc4)cc3)cc2)cc1` (repeat unit) reads 310.00 °C; that for `*Oc1ccc(C(=O)c2ccc(C(=O)c3ccc(*)c(C(C)C)c3)cc2)cc1C` (repeat unit), 149.00 °C; that for `*Oc1ccc(Oc2ccc(C(=O)c3ccc(C(=O)c4ccc(*)cc4)cc3)cc2)cc1` (repeat unit), 152.00 °C. In the case of `*Oc1ccc(Oc2ccc(C(=O)c3ccc(C(=O)c4ccc(*)cc4)cc3)cc2)cc1-c1ccc(S(=O)(=O)O)cc1` (repeat unit), the glass transition temperature came to 174.00 °C. The figure for `*Oc1ccc(Oc2ccc(C(=O)c3ccc(C(=O)c4ccc(*)cc4)cc3)cc2)cc1-c1ccccc1` (repeat unit) is 166.00 °C; for `*Oc1cccc(C(=O)Nc2ccc(S(=O)(=O)c3ccc(NC(=O)c4cccc(Oc5nc(*)nc(Sc6ccccc6)n5)c4)cc3)cc2)c1` (repeat unit) it is 304.00 °C. Compound `*Oc1cccc2ccc(Oc3ccc(NC(=O)c4ccc(C(c5ccc(C(=O)Nc6ccc(*)cc6)cc5)(C(F)(F)F)C(F)(F)F)cc4)cc3)cc12` (repeat unit) returned a glass transition temperature of 252.00 °C. For the compound `*Oc1cccc2ccc(Oc3ccc(NC(=O)c4ccc(S(=O)(=O)c5ccc(C(=O)Nc6ccc(*)cc6)cc5)cc4)cc3)cc12` (repeat unit), the glass transition temperature worked out at 259.00 °C. The result for `*Oc1cccc2ccc(Oc3ccc(NC(=O)c4cccc(C(=O)Nc5ccc(*)cc5)c4)cc3)cc12` (repeat unit) reads 256.00 °C. Regarding `*c1ccc(S(=O)(=O)c2ccc(NC(=O)c3cccc(C(=O)Nc4ccc(S(=O)(=O)c5ccc(-n6c(=O)c7cc8c(=O)n(*)c(=O)c8cc7c6=O)cc5)cc4)c3)cc2)cc1` (repeat unit), the glass transition temperature is 286.00 °C. In the case of `*c1ccc2c(c1)C(=O)N(c1ccc(C(=O)Nc3ccc(Oc4cccc(Oc5ccc(NC(=O)c6ccc(N7C(=O)c8ccc(C(*)(C(F)(F)F)C(F)(F)F)cc8C7=O)cc6)cc5)c4)cc3)cc1)C2=O` (repeat unit), the glass transition temperature came out at 286.00 °C. The figure for `*c1cccc(C(=O)Nc2ccc(Oc3ccc(S(=O)(=O)c4ccc(Oc5ccc(NC(=O)c6cccc(N7C(=O)c8ccc(-c9cccc%10c9C(=O)N(*)C%10=O)cc8C7=O)c6)cc5)cc4)cc3)cc2)c1` (repeat unit) is 263.00 °C.

With `*c1cccc(C(=O)Nc2ccc(Oc3cccc(Oc4ccc(NC(=O)c5cccc(N6C(=O)c7ccc(-c8ccc9c(c8)C(=O)N(*)C9=O)cc7C6=O)c5)cc4)c3)cc2)c1` (repeat unit), the glass transition temperature amounted to 253.00 °C. `*c1cccc(C(=O)Nc2ccc(Oc3cccc(Oc4ccc(NC(=O)c5cccc(N6C(=O)c7ccc(-c8cccc9c8C(=O)N(*)C9=O)cc7C6=O)c5)cc4)c3)cc2)c1` (repeat unit) registered a glass transition temperature of 253.00 °C. In turn, `*c1cccc(NC(=O)c2cccc(C(=O)Nc3cccc(-n4c(=O)c5cc6c(=O)n(*)c(=O)c6cc5c4=O)c3)c2)c1` (repeat unit) showed a glass transition temperature of 338.00 °C.
